From patent US12403144B2, “HECT E3 ligase inhibitors and uses thereof” (IFOM FONDAZIONE ISTITUTO FIRC DI ONCOLOGIA MOLECOLARE, priority 2019, dated 2025)
Structures can show the parent of a compound that is named as a salt.

Target: T1, untagged HECT of NEDD4 wild-type (WT) (E3 ligase) (Homo sapiens, UniProt P46934)
T1 construct: untagged HECT of NEDD4 wild-type (WT) (E3 ligase); made in house
T1 sequence (P46934 519-900 isoform P46934-4 limits assumed): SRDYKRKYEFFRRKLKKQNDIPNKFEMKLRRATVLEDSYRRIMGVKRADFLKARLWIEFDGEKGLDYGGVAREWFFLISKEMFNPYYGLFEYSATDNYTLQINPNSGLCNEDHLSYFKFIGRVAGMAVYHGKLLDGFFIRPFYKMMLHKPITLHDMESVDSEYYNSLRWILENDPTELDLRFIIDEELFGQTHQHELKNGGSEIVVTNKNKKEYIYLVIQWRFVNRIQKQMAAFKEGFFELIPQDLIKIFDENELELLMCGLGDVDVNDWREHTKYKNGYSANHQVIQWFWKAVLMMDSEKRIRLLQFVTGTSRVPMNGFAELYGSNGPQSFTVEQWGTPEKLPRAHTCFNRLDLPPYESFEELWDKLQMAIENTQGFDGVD
Experiment: In vitro ubiquitination assay TR-FRET based (self-ubiquitination of NEDD4)
Assay type: biochemical
Settings: at 11 μM; pre-incubated for 1 hour; AUC of 120 minutes kinetic; read-out: percentages of inhibition (NEDD4)
Excerpt: FIG. 1: TR-FRET kinetic assay performed with compound 12. […] Reactions were initiated with the addition of ATP. As labeled ubiquitin molecules become incorporated into chains they come into close proximity, resulting in energy transfer and increased signal to background detection. The activity of the enzyme is continuously and real time detected and it is expressed as % of signal/background during the time.
In order to quantitatively measure the self-ubiquitination process of the E3 HECT ligase NEDD4 the inventors employed a TR-FRET based assay. TR-FRET technology exploits the long-lasting emission of lanthanide fluorescence to interpose a short time-delay between FRET donor excitation and emission. This phenomenon enables to isolate real fluorescent signals from short-lived background emissions, thus reducing possible interference from compounds.
In the present study, elongation of the ubiqutin chain by NEDD4 is measured by adding bacterially expressed E1, His-tagged UBE2D3 (E2) and untagged HECT of NEDD4 wild-type (WT) (E3 ligase) (named in FIG. 1 as WT) enzymes to a mixture of Eu-cryptate ubiquitin, Cy5-ubiquitin and wild-type ubiquitin, combined in a ratio optimized for TR-FRET based conjugation (100×TRF-Ubiquitin Mix, SBB-TR0051). […] Bacterially expressed E1, His-tagged UBE2D3 (E2), untagged HECT NEDD4 (E3 ligase) WT and NEDD4 C/A enzymes were produced and purified as reported in E. Maspero et al. Methods Mol Biol. 1449:153-60 (2016).
Enzymatic incorporation of the labeled TRF-Ubiquitin mix into chains leads to an increase in fluorescence emission at 665 nm (emission of the acceptor Cy5-Ubiquitin, Emacceptor) and decrease at emission wavelength 620 nm (emission of the donor Eu-cryptate Ubiquitin, Emdonor).
The assay was performed in a 384-well plate format (Optiplate, Perkin Elmer, #6007290) on an automated liquid-handler (Hamilton STAR, Hamilton Robotics, Switzerland).
All compounds were dissolved in 100% DMSO and serially diluted in 96-well plates (from 100 μM to 0.005 μM).
Briefly, all reagents were thawed and kept on ice. A master mix containing E1, E2, E3 and TRF-Ubiquitin Mix (SBB-TR0051) diluted in the assay buffer (Tris-HCl pH 7.6 25 mM, NaCl 100 mM, MgCl2 5 mM and Tween 0.01%) is prepared and 50 μl/well is dispensed in a 384 well plate. 3 μl of compounds dissolved in DMSO in the above-indicated concentration range were added and pre-incubated for 1 hour. Final E1, E2 and E3 concentrations in the assay buffer (Tris-HCl pH 7.6 25 mM, NaCl 100 mM, MgCl2 5 mM and Tween 0.01%) were 30, 350 and 50 nanomolars, respectively. The reaction was initiated with the addition of ATP (22 μl of 2 mM ATP, JenaBioscience, NU-1010) and was allowed to proceed for 120 minutes, measuring fluorescence emission at 665 nm and 620 nm in real-time on an EnSpire microplate reader (Perkin Elmer).
Kinetic raw data were analyzed by Area Under the Curve (AUC) method using Prism GraphPad software.
% signal/background corresponds to the following equation: (Experimental signal−Background signal)/Background signal×100%
Experimental signal corresponds to the signal obtained by the enzymatic reaction in presence of the vehicle (DMSO) and/or the different compound concentrations. Background signal corresponds to the signal obtained by the enzymatic reaction in absence of ATP.
The relative potency of the compounds was evaluated by dose-response curves following the enzymatic reaction of HECT NEDD4 WT in real time for 120 minutes.
Percentage of inhibition is then determined by the equation: % inhibition=100×[1−(X)/(MAX)],
where MAX correspond to AUC of the vehicle (DMSO) treated enzyme, and X corresponds to the AUC of the compound treated enzyme.

First: CCOC(=O)/C=C/CNCCCN1c2ccccc2C(=O)N(C)c2ccc(Cl)cc21 [Compound 28, Ethyl (E)-4-{[3-(7-chloro-10-methyl-11-oxo-10,11-dihydro-5H-dibenzo[b,e][1,4]diazepin-5-yl)propyl]amino}but-2-enoate maleate]
Second: CCOC(=O)/C=C/CNCCCN1c2ccccc2C(=O)N(CCCO)c2ccc(Cl)cc21 [Compound 52, Ethyl (E)-4-({3-[7-chloro-10-(3-hydroxypropyl)-11-oxo-10,11-dihydro-5H-dibenzo[b,e][1,4]diazepin-5-yl]propyl}amino)but-2-enoate maleate]
The inhibition at 11 µM of the first is higher: greater than 50% for the first, 30 to 50% for the second.

`CCOC(=O)/C=C/CNCCCN1c2cc(Cl)ccc2CCc2cnn(C)c21` [Compound 30, Ethyl (E)-4-{[3-(8-chloro-1-methyl-4,5-dihydropyrazolo-[3,4-b][1]-benzazepin-10(1H)-yl)propyl]amino}but-2-enoate maleate] and `CCOC(=O)/C=C/CNCCCCN1c2cc(Cl)ccc2CCc2cnn(C)c21` [Compound 43, Ethyl (E)-4-{[4-(8-chloro-1-methyl-4,5-dihydropyrazolo-[3,4-b][1]-benzazepin-10(1H)-yl)butyl]amino}but-2-enoate maleate] cannot be ordered by inhibition at 11 µM: greater than 50% for the first, greater than 50% for the second.

First: CCOC(=O)/C=C/CNCCCN1c2cc(Cl)ccc2CCc2cn(C)nc21 [Compound 31]
Second: CCOC(=O)/C=C/CNCCCN1c2cc(Cl)ccc2CCc2cncnc21 [Compound 32, Ethyl (E)-4-{[3-(9-chloro-5,6-dihydro-11H-pyrimido[4,5-b][1]-benzazepin-11-yl)propyl]amino}but-2-enoate fumarate]
The inhibition at 11 µM of the first is lower: less than 30% for the first, greater than 50% for the second.

First: CCOC(=O)/C=C/CNCCC(=O)N1c2ccccc2CCc2ccc(Cl)cc21 [Compound 33, Ethyl (E)-4-{[3-(3-chloro-10,11-dihydro-5H-dibenzo[b,f]azepin-5-yl)-3-oxo-propyl]amino}but-2-enoate maleate]
Second: CCOC(=O)/C=C/CNCCCC(=O)N1c2ccccc2CCc2ccc(Cl)cc21 [Compound 38, Ethyl (E)-4-{[4-(3-chloro-10,11-dihydro-5H-dibenzo[b,f]azepin-5-yl)-4-oxo-butyl]amino}but-2-enoate maleate]
The inhibition at 11 µM of the first is lower: less than 30% for the first, greater than 50% for the second.

`CCOC(=O)/C=C/CNCC(O)CN1c2ccccc2CCc2ccc(Cl)cc21` (centres unmarked) [Compound 34, Ethyl (E)-4-{[2-hydroxy-3-(3-chloro-10,11-dihydro-5H-dibenzo[b,f]azepin-5-yl)]propylamino} but-2-enoate] and `CCOC(=O)/C=C/CNCCCN1c2cc(Cl)ccc2COc2ccccc21` [Compound 35, Ethyl (E)-4-{3-[3-chlorodibenzo[b,e][1,4]oxazepin-5(11H)-yl]propylamino}but-2-enoate maleate] cannot be ordered by inhibition at 11 µM: greater than 50% for the first, greater than 50% for the second.

`CCOC(=O)/C=C/CNCCCCN1c2cc(Cl)ccc2COc2ccccc21` [Compound 36, Ethyl (E)-4-{4-[3-chlorodibenzo[b,e][1,4]oxazepin-5(11H)-yl]butylamino}but-2-enoate maleate] and `CCOC(=O)/C=C/CNCCCCN1c2ccccc2COc2ccc(Cl)cc21` [Compound 37, Ethyl (E)-4-{4-[7-chlorodibenzo[b,e][1,4]oxazepin-5(11H)-yl]butylamino}but-2-enoate maleate] cannot be ordered by inhibition at 11 µM: greater than 50% for the first, greater than 50% for the second.

`CCOC(=O)/C=C/CNCCCCN1c2ccc(O)cc2CCc2ccc(Cl)cc21` [Compound 39, Ethyl (E)-4-[4-(7-Chloro-2-hydroxy-10,11-dihydro-dibenzo[b,f]azepin-5-yl)-butylamino]-but-2-enoate maleate] and `CCOC(=O)/C=C/CNCCCCN1c2ccccc2CCc2cc(O)c(Cl)cc21` [Compound 40, Ethyl (E)-4-[4-(3-Chloro-2-hydroxy-10,11-dihydro-dibenzo[b,f]azepin-5-yl)-butylamino]-but-2-enoate maleate] cannot be ordered by inhibition at 11 µM: greater than 50% for the first, greater than 50% for the second.

`CCOC(=O)/C=C/CNCCCCN1c2cc(Cl)ccc2NC(=O)c2ccccc21` [Compound 41, Ethyl (E)-4-{[4-(7-chloro-11-oxo-10,11-dihydro-5H-dibenzo[b,e][1,4]diazepin-5-yl)butyl]amino}but-2-enoate maleate] and `CCOC(=O)/C=C/CNCCCCN1c2ccccc2C(=O)N(CCO)c2ccc(Cl)cc21` [Compound 50, Ethyl (E)-4-({4-[7-chloro-10-(2-hydroxyethyl)-11-oxo-10,11-dihydro-5H-dibenzo[b,e][1,4]diazepin-5-yl]butyl}amino)but-2-enoate maleate] cannot be ordered by inhibition at 11 µM: greater than 50% for the first, greater than 50% for the second.

`CCOC(=O)/C=C/CNCCCCN1c2ccccc2C(=O)N(CCc2ccccc2)c2ccc(Cl)cc21` [Compound 44, Ethyl (E)-4-{[4-(7-chloro-10-(2-phenylethyl)-11-oxo-10,11-dihydro-5H-dibenzo[b,e][1,4]diazepin-5-yl)butyl]amino}but-2-enoate maleate] and `CCOC(=O)/C=C/CNCCCCN1c2ccccc2C(=O)N(CCCO)c2ccc(Cl)cc21` [Compound 51, Ethyl (E)-4-({4-[7-chloro-10-(3-hydroxypropyl)-11-oxo-10,11-dihydro-5H-dibenzo[b,e][1,4]diazepin-5-yl]butyl}amino)but-2-enoate maleate] cannot be ordered by inhibition at 11 µM: greater than 50% for the first, greater than 50% for the second.

`CCOC(=O)/C=C/CNCCCCN1c2cc(Cl)ccc2C(=O)N(CCO)c2ccccc21` [Compound 46, Ethyl (E)-4-({4-[3-chloro-10-(2-hydroxyethyl)-11-oxo-10,11-dihydro-5H-dibenzo[b,e][1,4]diazepin-5-yl]butyl}amino)but-2-enoate maleate] and `CCOC(=O)/C=C/CNCCCN1c2cc(Cl)ccc2C(=O)N(CCO)c2ccccc21` [Compound 47, Ethyl (E)-4-({3-[3-chloro-10-(2-hydroxyethyl)-11-oxo-10,11-dihydro-5H-dibenzo[b,e][1,4]diazepin-5-yl]propyl}amino)but-2-enoate maleate] cannot be ordered by inhibition at 11 µM: greater than 50% for the first, greater than 50% for the second.

`CCOC(=O)/C=C/CNCCCCN1c2cc(Cl)ccc2C(=O)N(CCCO)c2ccccc21` [Compound 48, Ethyl (E)-4-({4-[3-chloro-10-(3-hydroxypropyl)-11-oxo-10,11-dihydro-5H-dibenzo[b,e][1,4]diazepin-5-yl]butyl}amino)but-2-enoate maleate] and `CCOC(=O)/C=C/CNCCCN1c2cc(Cl)ccc2C(=O)N(CCCO)c2ccccc21` [Compound 49, Ethyl (E)-4-({3-[3-chloro-10-(3-hydroxypropyl)-11-oxo-10,11-dihydro-5H-dibenzo[b,e][1,4]diazepin-5-yl]propyl}amino)but-2-enoate maleate] cannot be ordered by inhibition at 11 µM: greater than 50% for the first, greater than 50% for the second.

In the case of `CN(C/C=C/C(=O)CCc1ccccc1)CCCCN1c2ccccc2CCc2ccc(Cl)cc21` [Compound 53, (E)-6-[4-(3-chloro-10,11-dihydro-5H-dibenzo[b,f]azepin-5-yl)butyl-methyl-amino]-1-phenyl-hex-4-en-3-one maleate], the inhibition at 11 µM was greater than 50%.
